# Data as given in PubChem BioAssay AID179 (DTP/NCI, 2004).
# Several values for one entry are separate records, joined by “and”; a condition that tells them apart may be missing. Identical values can stand only once. Activity calls are given as the source filed them.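 Rule for the calls: active = compounds giving half or more protection of infected cells from virus-caused growth loss, again on retest; inactive = the rest.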 Where a SMILES comes first, the peptide text is derived from it. Bridges are numbered along the chain shown (N, C = ends). [ ]: non-standard residue; d: D form. The star is where a group is joined. ξ: configuration not given here. X16 = O=C(/C=C/C=C/C=C/C=C/C=C/C(=O)*)NC1=C(O)CCC1=O; Fmoc = O=C(OCC1c2ccccc2-c2ccccc21)*; NMeA = CN[C@@H](C)C(=O)O; ξF = NC(Cc1ccccc1)C(=O)O; ξD = NC(CC(=O)O)C(=O)O; Ac3c = NC1(C(=O)O)CC1; Boc = CC(C)(C)OC(=O)*; OtBu = CC(C)(C)O*; ξA = CC(N)C(=O)O
# System: CEM cells HIV-1 protection, formazan growth assay
# Assay: NCI AIDS Antiviral Assay
# Conditions: for IC50: measured here: growth of uninfected CEM cells
# Procedure, shortened: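 Protection of CEM cells against HIV-1 measured as cell growth via soluble formazan read-out, with five concentrations tested on both infected and uninfected cells; failure to protect may reflect toxicity.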
SMILES,EC50 [µM],IC50,outcome
CCc1noc(N)c1C#N,> 200,182 µM,
NC(=O)C(=O)N/N=C1/c2ccccc2CC1C1(O)C(=O)Nc2c(Cl)cc(Cl)cc21 (stereo not drawn),> 12,> 12 µM,
CN/N=C(/CC(=O)c1sc(NNC(C)=O)nc1C)C(=O)Nc1ccc(OC)cc1OC,> 79.4,> 79.4 µM,
O=C(O)C1CCCCC1c1c2ccc(=O)cc-2oc2cc(O)ccc12 (stereo not drawn),> 200,10.7 µM,
CC(=O)OCC1OC(n2c(-c3ccccc3)c(C(C)=O)c(-c3cccc4ccccc34)c(C#N)c2=S)C(OC(C)=O)C(OC(C)=O)C1OC(C)=O (stereo not drawn),> 200,85.1 µM and 117 µM,
Cc1cc(=O)oc2cc(NCS(=O)(=O)O)ccc12,> 617,> 617 µM,
CCN=C(Nc1cccc(C2=NCCN2)c1)c1ccc(C(=NCC)Nc2cccc(C3=NCCN3)c2)cc1,145,> 200 µM,
Clc1ccccc1OCc1nc2ccccc2[nH]1,> 200,> 200 µM,
COC(C/C(=C/CO[Si](C(C)C)(C(C)C)C(C)C)C(=O)N(COCC[Si](C)(C)C)c1ccccc1I)OC,> 200,32.4 µM,
N#C/C(=C/c1ccccc1)c1ccccc1,> 200,39.8 µM,
C/C=C(\C1CC2c3[nH]c4ccccc4c3CCN2C(=O)C1C(=O)OCC)[Si](C)(C)C (stereo not drawn),> 12.3,> 12.3 µM,
COC(=O)C1(NC(=O)C(CC(=O)OC(C)(C)C)NC(=O)OC(C)(C)C)CC1 (stereo not drawn) (Boc-[ξD](OtBu)-[Ac3c]-OMe),> 200,> 200 µM,
COc1ccc(CCNC(=O)[C@H]2CCCC[C@@H]2CCO)cc1OC,> 200,> 200 µM,
COC(=O)C=Cc1ccc2nncnc2c1 (mixture of isomers),> 200,44.7 µM,
CC(=O)Nc1ccc2cc3[nH]c4cc(NC(C)=O)ccc4c3nc2c1,> 200,17.8 µM,
CCOC(=O)N1CCN(c2c(C)nc(C)[nH]c2=O)CC1,> 200,> 200 µM,
CC(C)=CCN1CCCn2c(=S)[nH]c3cccc(c32)C1,> 200,> 200 µM,
Cc1cn(C2CC(N(O)C(N)=O)C(CO)O2)c(=O)[nH]c1=O (stereo not drawn),> 200,> 200 µM and 107 µM,
BrC/C=C/C[P+](c1ccccc1)(c1ccccc1)c1ccccc1,> 5.25,0.603 µM,
O[C@]12c3ccccc3C1CCCC2N1CCOCC1 (stereo partly drawn),> 200,> 200 µM,
O=C1CCN2CCC(=O)c3c2c(cc2ccccc32)N1,> 26.9,> 26.9 µM,

SMILES,EC50 [µM],IC50,outcome
Cn1nc(-c2ccccc2)c(C(=O)/C=C/c2ccc(F)cc2)c(N2CCOCC2)c1=O,> 87.1,> 87.1 µM,
O=c1cc(CN2CCCCC2)[nH]c2c1ccc1nc(CN3CCCCC3)cc(=O)n12,> 100,> 100 µM,
Cc1ccc(S(=O)(=O)NCNS(=O)(=O)c2ccc(C)cc2)cc1,> 200,> 200 µM,
NC(=S)NCC12CC3CC(CC(C3)C1)C2,,,inactive
Cc1ccc(S(=O)(=O)OC2=C/C(=N\c3onc(C)c3C)c3ccccc3C2=O)cc1,> 200,3.09 µM,
CC(C)(C)OC(=O)NCCCCC(NC(=O)C(Cc1c[nH]c2ccccc12)NC(=O)OCC1c2ccccc2-c2ccccc21)C(=O)O (stereo not drawn) (Fmoc-Trp-Lys(Boc)-OH; configuration not given here),> 200,102 µM,
O=c1cc(NNc2ccc(F)cc2)[nH]c(=O)[nH]1,> 200,2.95 µM,
CN(C)c1cc(CNCCSC(C)(C)C)nc(CNCCSC(C)(C)C)c1,> 200,4.57 µM,
NC(=O)N/N=C(\CCC(=O)N(Cc1ccccc1)Cc1ccccc1)CC(=O)c1ccc(F)cc1,> 200,> 200 µM,
C=CCC(N(C)C(=O)[C@H](Cc1ccccc1)NC(=O)OCc1ccccc1)P(=O)(Oc1ccccc1)Oc1ccccc1 (stereo partly drawn),> 200,77.6 µM,
C=CCNC(=S)N/C=C(\c1ccccc1)S(=O)Cc1ccccc1 (stereo not drawn),> 200,> 200 µM,
Cc1ns/c(=N\C(=S)N(C)C)n1C,,,inactive
CCCc1nn2c(-c3ccccc3)nnc2o1,> 200,63.1 µM,
CCCCOC(=O)C1CC2OC2CC1C(=O)OCCOCCOC(=O)C1CC2OC2CC1C(=O)OCCCC (stereo not drawn),> 200,51.3 µM,
COC12C=CC(CC1)C(C)(C)C2O (stereo not drawn),> 200,> 200 µM,inactive
CC(C)=CCC[C@@H](C)c1c2[nH]c3ccccc3sc-2c(C)c(=O)c1=O,> 200,4.27 µM,
COC(=O)NC1(NC(=O)OC)NC(=O)c2cc(OC)c(OC)c(OC)c2N1,> 200,10 µM,
C=C(Br)CN(C#N)CC(=C)Br,> 200,> 200 µM,
COc1cccc(-c2nc(-c3cnccn3)n(COCCO)n2)c1,> 200,> 200 µM,
S=C(N/N=C/c1cccc2ccccc12)Nc1c(Cl)cccc1Cl,> 200,102 µM,
CO/N=C/c1cc(OC)c(OC)c(OC)c1,> 813,> 813 µM,

SMILES,EC50 [µM],IC50,outcome
CO[C@H]1C=CO[C@@]2(C)Oc3c(C)c(O)c4c(O)c(c(CN5CCN(C)CC5)c(O)c4c3C2=O)NC(=O)/C(C)=C\C=C[C@H](C)[C@H](O)C(C)[C@@H](O)C(C)[C@H](OC(C)=O)[C@@H]1C (stereo partly drawn),,,inactive
C=C1C2CC[C@@H]3C(C2)(C(=O)C(O)[C@@H]2C(C)(C)[C@@H]4CC(=O)C32CO4)C1OC(C)=O (stereo partly drawn),> 646,8.13 µM,
CCOC(=O)NC(=O)c1cn(CCCCCCOC(=O)NCCCCCCNC(=O)OCCCCCCn2cc(C(=O)NC(=O)OCC)c(=O)[nH]c2=O)c(=O)[nH]c1=O,,,inactive
O=C(N1CCN(CCO)CC1)N1c2ccccc2Sc2ccccc21,> 200,117 µM,
CCOC(=O)NC(C(F)(F)F)(C(F)(F)F)P(=O)(OC(C)C)OC(C)C,> 200,> 200 µM,
CN(C)C(=O)ON=C1c2ccccc2-c2ccccc21,> 200,28.8 µM,
O=C1C(Cl)N(c2ccc(Cl)cc2Cl)C1c1c[nH]c2ccccc12 (stereo not drawn),> 70.8,> 70.8 µM,
CCOC(=O)c1ccc(-n2nc(C)cc(Cl)c2=O)cc1,> 123,23.4 µM,
O=C(CC(C(=O)c1cccs1)c1cccs1)c1ccccc1Cl (stereo not drawn),> 200,18.6 µM,
CC(C)=CCN1CC(C)C(=O)Nc2ccccc21 (stereo not drawn),19.5,117 µM,
CCOC(=O)CNS(=O)(=O)c1ccccc1,> 200,> 200 µM,
CCC1(N)COC(c2ccccc2)OC1 (stereo not drawn),> 200,> 200 µM,
O=C(c1ccccc1)C1N=NN(Cc2ccccc2[N+](=O)[O-])C1C(=O)c1ccccc1 (stereo not drawn),> 4.79,> 4.79 µM,
Cc1nc2nn(Cc3ccccc3)cc2c(=O)o1,> 1020,57.5 µM,
O=c1c(Cl)c2cc3c(cc2c2ccccc12)nc1cccnc1n3C1CCCCC1,> 39.8,> 39.8 µM,
C[N+]1(CC(O)(O)C(F)F)CCOCC1,> 200,> 200 µM,
CCCCOC(=O)C(=O)/C(=C\n1c(=S)[nH]c2ccccc21)C(=O)C=C(C)C,> 200,,
CCOC(=O)c1c(-c2ccc(Cl)cc2)c(C#N)c(=S)n(C2OC(COC(C)=O)C(OC(C)=O)C(OC(C)=O)C2OC(C)=O)c1-c1ccccc1 (stereo not drawn),> 200,77.6 µM,
CCOC(=O)C(C(=O)OCC)C1(c2ccccc2)OC(=O)c2ccccc21 (stereo not drawn),,,inactive
COc1nc(N)c(N=O)c(OCc2ccccc2)n1,> 200,3.98 µM,
CCOC(=O)N1CCc2cc(OC)c(OC)c3c2c1cc1cc(OC)c(OC)cc13,,,inactive

SMILES,EC50 [µM],IC50,outcome
CN(C)CCO/N=C1/C=C2CC[C@H]3[C@@H]4CC[C@H](O)[C@@]4(C)CC[C@@H]3[C@@]2(C)CC1,> 200,6.03 µM,
C=C[C@@H](C)[C@]1(C(=O)OC)CCCC12OCCO2,> 282,> 282 µM,
CC1NC(=O)[C@H](C)N(C)C(=O)[C@@H]2CCCN2C(=O)[C@@H](NC(=O)C(Cc2ccccc2)NC(=O)/C=C/C=C/C=C/C=C/C=C/C(=O)NC2=C(O)CCC2=O)COC(=O)[C@@H]2CCCN2C1=O (stereo partly drawn) (X16-[ξF]SP[NMeA][ξA]P; ester 2-C),> 151,> 151 µM,
CN(NC1=NCCO1)c1ccc2ccccc2c1,> 200,28.8 µM,
COc1ccccc1C1CC(c2ccccc2)=Nc2ccccc2S1 (stereo not drawn),> 42.7,8.13 µM,
COc1ccc(NC(=O)CC/C(CC(=O)c2ccco2)=N/NC(N)=S)cc1,,,inactive
Cc1ccccc1N1C(N)=C(C#N)C(C#N)(C#N)C1c1ccccc1 (stereo not drawn),> 200,12 µM,
COc1ccc(C2c3cc4c(cc3OC(N3CCOCC3)C2C)OCO4)c(OC)c1OC (stereo not drawn),> 200,9.55 µM,
O=c1[nH][nH]c(=O)c2c1[nH]c(=S)n2-c1ccccc1,> 200,> 200 µM,
CC(=O)O[C@H]1CC[C@@]2(C)C(=CC[C@@H]3C2CC[C@@]2(C)C3CC[C@@H]2c2ncc(-c3ccccc3)s2)C1 (stereo partly drawn),> 52.5,> 52.5 µM,
C[Si](C)(C)OC1(C2=CCCC2)CCCC1CC#N (stereo not drawn),> 955,> 955 µM,
CC1(C)CCCC2(C)C3=C(CCC12)C(=O)OC3 (stereo not drawn),> 30.9,> 30.9 µM,
CCCCCCCCCC=C(c1cc(Cl)c(OC)c(C(=O)O)c1)c1cc(Cl)c(OC)c(C(=O)O)c1,263,316 µM,
Cn1c(N=P(c2ccccc2)(c2ccccc2)c2ccccc2)c([N+](=O)[O-])c(=O)n(C)c1=O,,,inactive
Cc1c(N=Nc2ccccc2)c(C)n(C2OC(CO)C(O)C(O)C2O)c(=S)c1C#N (stereo not drawn),> 200,22.9 µM,
C[n+]1c(-c2ccc(/C=C/C=N\NC(=O)c3ccc(C(=O)N/N=C\C=C\c4ccc(-c5cn6ccccc6[n+]5C)cc4)cc3)cc2)cn2ccccc21,> 9.77,> 9.77 µM,
COc1nc2cc3c(cc2n2cccc12)oc1ccccc13,155,> 200 µM,
Oc1ccccc1/C=C/c1csnn1,> 178,> 178 µM,
Cc1cc(=O)n2c(n1)Nc1ccc(Cl)cc1C2,> 52.5,> 52.5 µM,
O=C1C=CC2O[C@H](c3ccccc3)[C@H](O)C2O1 (stereo partly drawn),> 1070,5.37 µM,
